The values below come from patent US10987349B2, “Antitumor agent and bromodomain inhibitor” (FUJIFILM Corporation, priority 2016, dated 2021).

The test system of one series is NCI-H69. Put plainly: Cell growth test (Cell Titer Blue) NCI-H69. Type of series: cell-based. The note with it: Homo sapiens, 72 h, NCI-H69, Lung cancer, 3 days. The method, then:
(§1) Moreover, the compound of Example 14 was subjected to a cell growth test using various types of cell lines.
(§2) All cell lines other than the below-noticed cells were each seeded in a well plate, in which an RPMI-1640 medium supplemented with penicillin/streptomycin and FBS with a final concentration of 10% was placed. The human prostate cancer cell line VCaP (ATCC) was seeded in a well plate, in which DMEM medium supplemented with penicillin/streptomycin and FBS with a final concentration of 10% was placed. […] Thereafter, using Enspire Multimode Plate Reader (PerkinElmer), the amount of fluorescence at an excitation wavelength of 531 nm and a fluorescence wavelength of 615 nm was measured. Since the amount of fluorescence is in proportion to the concentration of a florescent product resorufin that is converted from resazurin as a redox dye by living cells, the amount of fluorescence was used as an indicator of the number of living cells. The growth inhibition percentage of the test compound in each concentration was calculated according to the following equation. Growth inhibition percentage (%)=(amount of fluorescence in test compound−added well)/(amount of fluorescence in DMSO−added well)×100 […]

The next series concerns MDA-MB-453. Put plainly: Cell growth test (Cell Titer Blue) MDA-MB-453. The note with it: Homo sapiens, 72 h, MDA-MB-453, Breast cancer, 3 days. It counts as cell-based. How it is done: as §1, §2
For the next series, the system named is MDA-MB-435. Put plainly: Cell growth test (Cell Titer Blue) MDA-MB-435. It counts as cell-based. As to conditions: Homo sapiens, 72 h, MDA-MB-435, Melanoma, 3 days. The method, then: as §1, §2
The next series has as its system NCI-H1299. Put plainly: Cell growth test (Cell Titer Blue) NCI-H1299. Type of series: cell-based. The note with it: Homo sapiens, 72 h, NCI-H1299, Lung cancer, 3 days. How it is done: as §1, §2
A further series deals with NCI-H460. Put plainly: Cell growth test (Cell Titer Blue) NCI-H460. It counts as cell-based. The note with it: Homo sapiens, 72 h, NCI-H460, Lung cancer, 3 days. The method, then:
as §1, §2

A further series relates to K-562. Put plainly: Cell growth test (Cell Titer Blue) K-562. It counts as cell-based. The note with it: Homo sapiens, K562, 72 h, K-562, Chronic myeloid leukemia, 3 days. How it is done:
as §1, §2

The next series relates to MCF-7. Put plainly: Cell growth test (Cell Titer Blue) MCF-7. It counts as cell-based. The note with it: Homo sapiens, MCF7, 72 h, MCF-7, Breast cancer, 3 days. The method, then:
as §1, §2

The subject of a further series is Raji. Put plainly: Cell growth test (Cell Titer Blue) Raji. Type of series: cell-based. As to conditions: Homo sapiens, 72 h, Lymphoma (DSMZ), 3 days. How it is done:
as §1, §2

Another series concerns WSU-DLCL2. Put plainly: Cell growth test (Cell Titer Blue) WSU-DLCL2. The note with it: Homo sapiens, WSUDLCL2, 72 h, WSU-DLCL2, Lymphoma, 3 days. It counts as cell-based. How it is done:
as §1, §2

Another series has as its system NCI-H522. Put plainly: Cell growth test (Cell Titer Blue) NCI-H522. Type of series: cell-based. The note with it: Homo sapiens, 72 h, NCI-H522, Lung cancer, 3 days. How it is done:
as §1, §2

For another series, the system named is Saos-2. Put plainly: Cell growth test (Cell Titer Blue) Saos-2. It counts as cell-based. As to conditions: Homo sapiens, 72 h, Saos-2, Sarcoma, 3 days. How it is done: as §1, §2
The subject of a further series is HL-60. Put plainly: Cell growth test (Cell Titer Blue) HL-60. Type of series: cell-based. As to conditions: Homo sapiens, 72 h, HL-60, Acute myeloid leukemia, 3 days. How it is done: as §1, §2
A short description of series [1]: Intravenous administration toxicity test on rats. Type of series: in vivo, rat. How it is done:
With reference to the above-described findings, the compound of the present example was administered to rats via repeated intravenous administration, and the influence of the compound on the body weight and the digestive tract was then evaluated.
The compound of Example 14 was dissolved in a solvent (a normal saline containing 1 equivalent of hydrochloric acid), and the obtained solution was then intravenously administered to 6-week-old male SD rats (Charles River Laboratories Japan) at a dose of 30 to 60 mg/kg, once a day, for 7 days. As a negative control, a solvent administration group involving administration of a normal saline was established. At the time of the final administration, the plasma concentration of the compound of Example 14 was measured. […] Moreover, a weight reduction was not observed during the administration period. Furthermore, on the day following the final administration, pathological evaluation was carried out.

The subject of another series is MKN45. Put plainly: Cell growth test (Cell Titer Blue) MKN45. Type of series: cell-based. The note with it: Homo sapiens, MKN-45, 72 h, MKN45, Stomach cancer, 3 days. How it is done: as §1, §2
The test system of series [2] is human lymphoma cell line OCI-Ly7. Put plainly: Cell growth test (Cell Titer Blue) OCI-LY7. Type of series: cell-based. As to conditions: 72 h, 3 days. How it is done: as §1, §2
Where [3] appears, read: male SD rats, intravenously 30 to 60 mg/kg, once a day, 7 days.

As for `CCn1c(=O)cc(C2CCN(C)CC2)c2cc(C(=O)N(C)c3ccc(C)cc3)ccc21` [Example 14, 1-Ethyl-N-methyl-N-(4-methylphenyl)-4-(1-methylpiperidin-4-yl)-2-oxo-1,2-dihydroquinoline-6-carboxamide], the GI50 in the series with NCI-H69 was 975 nM; in the series on MDA-MB-453 it was 115 nM; in the series with MDA-MB-435 it was 2780 nM; with NCI-H1299 it was 422 nM; with NCI-H460, 2030 nM; in the series with K-562 it was 17 nM. Moreover, the GI50 with MCF-7 worked out at 689 nM; with Raji it was 203 nM; with WSU-DLCL2, 91 nM; in the series with NCI-H522, 155 nM; in the series with Saos-2, 2620 nM; in the series on HL-60 it was 27 nM. In addition, the results for the 50% growth inhibitory concentration (GI50) (with MKN45; in [2]) were 2180 nM and 274 nM, respectively. Also, in [1] (setting [3]), the “plasma concentration at the time of the final administration” value was “increased in proportion to the applied dose”. The “weight reduction during the administration period” value in series [1] (setting [3]) is “not observed”. The “pathological evaluation of gastrointestinal epithelial cells including gastrointestinal epithelial stem cells” value in [1] (male SD rats, intravenously 30 to 60 mg/kg, once a day, 7 days, day following the final administration) is on record as “no disorders were found”. In addition, the “AUC without weight reduction relative to the AUC upon intravenous administration in Test Example 3” value in [1] (rats, intravenous) is 3.8 times.
